System: patients with cGVHD
Assay: Example 2: safety, adverse events, relative dose intensity
Assay type: in vivo
Conditions: for Cough / Diarrhea / Dyspnea / Fatigue / Headache / Muscle spasms / Nausea / Peripheral edema / Upper respiratory tract infection / Vomiting: All grades; for Hyperglycemia / Hypertension / Pneumonia: Grade ≥ 3; for ALT increased / AST increased / Bilirubin conjugated increased / Blood alkaline phosphatase increased / GGT increased / Hypoalbuminemia / LFT increased / Transaminases increased: Liver-related AE
Experimental: All responses were assessed by the study site investigators.

## CC(C)NC(=O)COc1cccc(-c2nc(Nc3ccc4[nH]ncc4c3)c3ccccc3n2)c1 [Belumosudil, 2-{3-[4-(1H-indazol-5-ylamino)-2-quinazolinyl]phenoxy}-N-(propan-2-yl) acetamide]
200 mg daily (n = 66)
  Any AE: 65 (99) n (%)
  Deaths: 8 (12) n (%)
  Drug-related AEs: 49 (74) n (%)
  Drug-related SAEs: 5 (8) n (%)
  Grade ≥ 3 AEs: 37 (56) n (%)
  Liver-related AEs: 12 (18) n (%)
  SAEs: 27 (41) n (%)
  Cough: 20 (30) n (%)
  Diarrhea: 23 (35) n (%)
  Dyspnea: 21 (32) n (%)
  Fatigue: 30 (46) n (%)
  Headache: 13 (20) n (%)
  Muscle spasms: 13 (20) n (%)
  Nausea: 23 (35) n (%)
  Peripheral edema: 17 (26) n (%)
  Upper respiratory tract infection: 17 (26) n (%)
  Vomiting: 18 (27) n (%)
  Hyperglycemia: 3 (5) n (%)
  Hypertension: 4 (6) n (%)
  Pneumonia: 6 (9) n (%)
  ALT increased: 4 (6) n (%)
  AST increased: 5 (8) n (%)
  Bilirubin conjugated increased: 1 (2) n (%)
  Blood alkaline phosphatase increased: 4 (6) n (%)
  GGT increased: 6 (9) n (%)
  Hypoalbuminemia: 2 (3) n (%)
  LFT increased: 1 (2) n (%)
  Transaminases increased: 1 (2) n (%)
200 mg twice daily (n = 66)
  Any AE: 66 (100) n (%)
  Deaths: 6 (9) n (%)
  Drug-related AEs: 40 (61) n (%)
  Drug-related SAEs: 2 (3) n (%)
  Grade ≥ 3 AEs: 34 (52) n (%)
  Liver-related AEs: 19 (29) n (%)
  SAEs: 23 (35) n (%)
  Cough: 17 (26) n (%)
  Diarrhea: 21 (32) n (%)
  Dyspnea: 12 (18) n (%)
  Fatigue: 20 (30) n (%)
  Headache: 18 (27) n (%)
  Muscle spasms: 13 (20) n (%)
  Nausea: 18 (27) n (%)
  Peripheral edema: 13 (20) n (%)
  Upper respiratory tract infection: 18 (27) n (%)
  Vomiting: 10 (15) n (%)
  Hyperglycemia: 3 (5) n (%)
  Hypertension: 4 (6) n (%)
  Pneumonia: 4 (6) n (%)
  ALT increased: 7 (11) n (%)
  AST increased: 8 (12) n (%)
  Bilirubin conjugated increased: 0 n (%)
  Blood alkaline phosphatase increased: 6 (9) n (%)
  GGT increased: 10 (15) n (%)
  Hypoalbuminemia: 2 (3) n (%)
  LFT increased: 0 n (%)
  Transaminases increased: 1 (2) n (%)
Total (N = 132)
  Cough: 37 (28) n (%)
  Diarrhea: 44 (33) n (%)
  Dyspnea: 33 (25) n (%)
  Fatigue: 50 (38) n (%)
  Headache: 31 (24) n (%)
  Muscle spasms: 26 (20) n (%)
  Nausea: 41 (31) n (%)
  Peripheral edema: 30 (23) n (%)
  Upper respiratory tract infection: 35 (27) n (%)
  Vomiting: 28 (21) n (%)
  Hyperglycemia: 6 (5) n (%)
  Hypertension: 8 (6) n (%)
  Pneumonia: 10 (8) n (%)
  ALT increased: 11 (8) n (%)
  AST increased: 13 (10) n (%)
  Bilirubin conjugated increased: 1 (1) n (%)
  Blood alkaline phosphatase increased: 10 (8) n (%)
  GGT increased: 16 (12) n (%)
  Hypoalbuminemia: 4 (3) n (%)
  LFT increased: 1 (1) n (%)
  Transaminases increased: 2 (2) n (%)
  Any AE: 131 (99) n (%)
  Drug-related AEs: 89 (67) n (%)
  Drug-related SAEs: 7 (5) n (%)
  Grade ≥ 3 AEs: 71 (54) n (%)
  Liver-related AEs: 31 (24) n (%)
  SAEs: 50 (38) n (%)
Example 2
  SAE pneumonia: 7%
  deaths from multiorgan failure and infection possibly related to belumosudil: 2
  grade 3 or 4 hyperglycemia: 5%
  grade 3 or 4 hypertension: 6%
  grade 3 or 4 pneumonia: 8%
  grade ≥3 anemia: 3%
  grade ≥3 cytopenias: < 4%
  grade ≥3 neutropenia: 2%
  grade ≥3 thrombocytopenia: 2%
  increased GGT (AE): 12%
  median RDI: 99.7%
  subjects who died during the study: Fourteen
  subjects who discontinued because of overall AEs: 21%
  subjects who discontinued because of possible drug-related AEs: 12%
  subjects who discontinued because of progression of cGVHD: 16%
  subjects who discontinued because of progression of underlying malignant disease: 4%
  subjects who received an RDI >95%: Eighty-one
  subjects with increased liver function tests (LFTs): Twenty-four
  subjects with ≥1 SAE: Thirty eight
  tolerability: well tolerated
Example 2, unrelated to belumosudil
  cases of Epstein-Barr viremia that required treatment: 1 case
Total (N = 132), six died during LTFU (>28 days after last dose)
  Deaths: 14 (11) n (%)
